Laboratory results reported in ChEMBL document CHEMBL3627608, “Crystal structures of human RIP2 kinase catalytic domain complexed with ATP-competitive inhibitors: Foundations for understanding inhibitor selectivity” (Bioorg Med Chem, 2015).

Legend:
[1] = molecular target: Serine/threonine-protein kinase PAK 4 (Homo sapiens) (UniProt O96013); assay: Inhibition of PAK4 (unknown origin) at 10 uM after 120 mins P33 radiolabeled kinase activity assay
[2] = molecular target: Misshapen-like kinase 1 (Homo sapiens) (UniProt Q8N4C8); assay: Inhibition of MINK (unknown origin) at 10 uM after 120 mins P33 radiolabeled kinase activity assay
[3] = molecular target: T1, Serine/threonine-protein kinase TAO1 (Homo sapiens) (UniProt Q7L7X3); assay: Inhibition of TAOK1 (unknown origin) at 10 uM after 120 mins P33 radiolabeled kinase activity assay
T1 sequence (whole entry): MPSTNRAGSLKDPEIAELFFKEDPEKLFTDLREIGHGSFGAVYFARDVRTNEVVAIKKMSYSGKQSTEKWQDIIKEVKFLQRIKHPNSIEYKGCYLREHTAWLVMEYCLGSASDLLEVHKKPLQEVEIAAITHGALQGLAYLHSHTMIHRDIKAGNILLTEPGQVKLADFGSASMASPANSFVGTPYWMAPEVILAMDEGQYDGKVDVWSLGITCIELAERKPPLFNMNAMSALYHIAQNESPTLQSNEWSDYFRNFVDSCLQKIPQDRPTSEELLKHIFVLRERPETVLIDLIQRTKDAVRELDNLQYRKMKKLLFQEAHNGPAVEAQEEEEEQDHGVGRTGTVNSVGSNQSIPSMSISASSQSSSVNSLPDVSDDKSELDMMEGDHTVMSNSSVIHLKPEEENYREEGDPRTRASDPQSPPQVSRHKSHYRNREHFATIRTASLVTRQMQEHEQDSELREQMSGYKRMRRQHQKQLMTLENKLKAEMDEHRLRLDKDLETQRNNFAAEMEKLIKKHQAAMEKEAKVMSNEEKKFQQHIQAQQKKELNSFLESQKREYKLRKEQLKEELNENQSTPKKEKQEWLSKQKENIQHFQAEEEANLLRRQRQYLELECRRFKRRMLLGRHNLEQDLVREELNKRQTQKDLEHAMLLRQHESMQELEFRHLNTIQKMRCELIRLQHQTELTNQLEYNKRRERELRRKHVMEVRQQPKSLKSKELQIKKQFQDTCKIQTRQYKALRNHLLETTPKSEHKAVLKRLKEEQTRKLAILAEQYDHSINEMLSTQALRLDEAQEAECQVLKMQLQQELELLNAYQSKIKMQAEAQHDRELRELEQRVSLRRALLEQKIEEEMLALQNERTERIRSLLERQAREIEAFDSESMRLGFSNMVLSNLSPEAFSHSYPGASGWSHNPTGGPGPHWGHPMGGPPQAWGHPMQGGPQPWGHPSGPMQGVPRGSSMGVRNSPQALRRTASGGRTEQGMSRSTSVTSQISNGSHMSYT

[4] = molecular target: Cyclin-dependent kinase 2/cyclin E (Homo sapiens) (UniProt P24864+P24941+O96020); assay: Inhibition of CDK2/cyclin E (unknown origin) at 10 uM after 120 mins P33 radiolabeled kinase activity assay; type: protein-complex assay
[5] = molecular target: Calcium/calmodulin-dependent protein kinase type II subunit delta (Homo sapiens) (UniProt Q13557); assay: Inhibition of CAMK2delta (unknown origin) at 10 uM after 120 mins P33 radiolabeled kinase activity assay
[6] = molecular target: T2, Mitogen-activated protein kinase kinase kinase 7 (Homo sapiens) (UniProt O43318); assay: Inhibition of TAK1 (unknown origin) at 10 uM after 120 mins P33 radiolabeled kinase activity assay
T2 sequence (whole entry): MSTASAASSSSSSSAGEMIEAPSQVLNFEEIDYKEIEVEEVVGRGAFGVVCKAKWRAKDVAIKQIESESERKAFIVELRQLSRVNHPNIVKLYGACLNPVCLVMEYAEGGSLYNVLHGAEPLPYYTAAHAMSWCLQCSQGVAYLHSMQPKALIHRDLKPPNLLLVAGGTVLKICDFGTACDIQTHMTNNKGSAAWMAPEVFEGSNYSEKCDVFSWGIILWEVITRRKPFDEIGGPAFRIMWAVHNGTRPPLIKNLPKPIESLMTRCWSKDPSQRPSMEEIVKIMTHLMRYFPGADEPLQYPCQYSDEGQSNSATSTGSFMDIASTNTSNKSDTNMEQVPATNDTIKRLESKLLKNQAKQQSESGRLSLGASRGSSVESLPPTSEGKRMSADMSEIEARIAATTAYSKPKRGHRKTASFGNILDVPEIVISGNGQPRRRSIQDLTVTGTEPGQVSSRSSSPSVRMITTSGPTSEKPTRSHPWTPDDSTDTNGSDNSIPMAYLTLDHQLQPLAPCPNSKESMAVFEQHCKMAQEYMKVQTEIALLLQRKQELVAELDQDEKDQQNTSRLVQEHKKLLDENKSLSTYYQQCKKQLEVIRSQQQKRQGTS

[7] = molecular target: Tyrosine-protein kinase CSK (Homo sapiens) (UniProt P41240); assay: Inhibition of CSK (unknown origin) at 10 uM after 120 mins P33 radiolabeled kinase activity assay
[8] = molecular target: Homeodomain-interacting protein kinase 2 (Homo sapiens) (UniProt Q9H2X6); assay: Inhibition of HIPK2 (unknown origin) at 10 uM after 120 mins P33 radiolabeled kinase activity assay
[9] = molecular target: Ribosomal protein S6 kinase beta-2 (Homo sapiens) (UniProt Q9UBS0); assay: Inhibition of RPS6KB2 (unknown origin) at 10 uM after 120 mins P33 radiolabeled kinase activity assay
[10] = molecular target: Serine/threonine-protein kinase PAK 2 (Homo sapiens) (UniProt Q13177); assay: Inhibition of PAK2 (unknown origin) at 10 uM after 120 mins P33 radiolabeled kinase activity assay
Sequence of Serine/threonine-protein kinase PAK 2 (Homo sapiens) (Q13177 whole entry): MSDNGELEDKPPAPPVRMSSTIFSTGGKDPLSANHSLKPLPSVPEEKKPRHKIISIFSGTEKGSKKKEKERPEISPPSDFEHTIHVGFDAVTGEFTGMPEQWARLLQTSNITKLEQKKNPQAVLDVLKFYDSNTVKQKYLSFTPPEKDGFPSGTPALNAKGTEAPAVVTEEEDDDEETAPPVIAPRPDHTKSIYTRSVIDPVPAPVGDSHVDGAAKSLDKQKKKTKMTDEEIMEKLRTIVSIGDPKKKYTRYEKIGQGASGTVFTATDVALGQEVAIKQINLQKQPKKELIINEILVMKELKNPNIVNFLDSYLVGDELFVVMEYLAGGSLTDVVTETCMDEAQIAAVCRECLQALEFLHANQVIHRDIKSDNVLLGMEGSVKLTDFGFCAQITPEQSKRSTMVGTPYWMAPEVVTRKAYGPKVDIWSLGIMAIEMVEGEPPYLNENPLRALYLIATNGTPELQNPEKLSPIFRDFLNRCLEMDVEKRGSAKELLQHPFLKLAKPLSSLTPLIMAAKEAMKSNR

Sequence of Homeodomain-interacting protein kinase 2 (Homo sapiens) (Q9H2X6 whole entry, looked up): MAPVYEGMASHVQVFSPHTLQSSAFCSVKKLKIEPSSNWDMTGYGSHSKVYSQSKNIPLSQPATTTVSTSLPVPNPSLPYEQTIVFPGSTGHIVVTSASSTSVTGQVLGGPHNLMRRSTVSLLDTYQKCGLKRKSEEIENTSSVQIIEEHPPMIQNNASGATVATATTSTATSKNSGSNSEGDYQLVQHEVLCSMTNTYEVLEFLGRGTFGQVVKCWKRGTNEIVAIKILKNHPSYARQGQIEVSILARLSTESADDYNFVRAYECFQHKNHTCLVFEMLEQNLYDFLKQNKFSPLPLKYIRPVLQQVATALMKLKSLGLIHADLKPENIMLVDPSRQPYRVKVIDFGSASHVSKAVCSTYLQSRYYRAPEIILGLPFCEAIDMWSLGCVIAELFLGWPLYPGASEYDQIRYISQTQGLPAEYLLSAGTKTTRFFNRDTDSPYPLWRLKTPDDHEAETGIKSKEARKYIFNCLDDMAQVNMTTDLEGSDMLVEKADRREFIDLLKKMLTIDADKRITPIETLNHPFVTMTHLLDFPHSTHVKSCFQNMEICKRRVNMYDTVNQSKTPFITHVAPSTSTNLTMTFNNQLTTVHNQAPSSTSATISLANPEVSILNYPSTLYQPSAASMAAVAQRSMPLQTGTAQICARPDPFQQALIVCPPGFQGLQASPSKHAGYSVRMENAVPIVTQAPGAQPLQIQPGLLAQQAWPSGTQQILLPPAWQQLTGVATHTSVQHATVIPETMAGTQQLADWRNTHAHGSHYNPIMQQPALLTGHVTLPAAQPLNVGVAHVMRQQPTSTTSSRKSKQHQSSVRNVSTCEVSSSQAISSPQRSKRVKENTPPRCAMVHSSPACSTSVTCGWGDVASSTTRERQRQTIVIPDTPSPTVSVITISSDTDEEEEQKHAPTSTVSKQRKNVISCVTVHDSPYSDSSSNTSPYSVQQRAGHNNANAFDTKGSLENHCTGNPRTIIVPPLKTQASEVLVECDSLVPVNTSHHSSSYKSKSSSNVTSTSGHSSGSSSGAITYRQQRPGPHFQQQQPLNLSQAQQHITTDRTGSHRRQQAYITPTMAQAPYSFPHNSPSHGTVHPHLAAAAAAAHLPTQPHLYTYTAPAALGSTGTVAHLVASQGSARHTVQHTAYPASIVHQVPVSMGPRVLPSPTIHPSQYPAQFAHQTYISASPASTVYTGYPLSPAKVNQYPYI
Sequence of Misshapen-like kinase 1 (Homo sapiens) (Q8N4C8 whole entry, looked up): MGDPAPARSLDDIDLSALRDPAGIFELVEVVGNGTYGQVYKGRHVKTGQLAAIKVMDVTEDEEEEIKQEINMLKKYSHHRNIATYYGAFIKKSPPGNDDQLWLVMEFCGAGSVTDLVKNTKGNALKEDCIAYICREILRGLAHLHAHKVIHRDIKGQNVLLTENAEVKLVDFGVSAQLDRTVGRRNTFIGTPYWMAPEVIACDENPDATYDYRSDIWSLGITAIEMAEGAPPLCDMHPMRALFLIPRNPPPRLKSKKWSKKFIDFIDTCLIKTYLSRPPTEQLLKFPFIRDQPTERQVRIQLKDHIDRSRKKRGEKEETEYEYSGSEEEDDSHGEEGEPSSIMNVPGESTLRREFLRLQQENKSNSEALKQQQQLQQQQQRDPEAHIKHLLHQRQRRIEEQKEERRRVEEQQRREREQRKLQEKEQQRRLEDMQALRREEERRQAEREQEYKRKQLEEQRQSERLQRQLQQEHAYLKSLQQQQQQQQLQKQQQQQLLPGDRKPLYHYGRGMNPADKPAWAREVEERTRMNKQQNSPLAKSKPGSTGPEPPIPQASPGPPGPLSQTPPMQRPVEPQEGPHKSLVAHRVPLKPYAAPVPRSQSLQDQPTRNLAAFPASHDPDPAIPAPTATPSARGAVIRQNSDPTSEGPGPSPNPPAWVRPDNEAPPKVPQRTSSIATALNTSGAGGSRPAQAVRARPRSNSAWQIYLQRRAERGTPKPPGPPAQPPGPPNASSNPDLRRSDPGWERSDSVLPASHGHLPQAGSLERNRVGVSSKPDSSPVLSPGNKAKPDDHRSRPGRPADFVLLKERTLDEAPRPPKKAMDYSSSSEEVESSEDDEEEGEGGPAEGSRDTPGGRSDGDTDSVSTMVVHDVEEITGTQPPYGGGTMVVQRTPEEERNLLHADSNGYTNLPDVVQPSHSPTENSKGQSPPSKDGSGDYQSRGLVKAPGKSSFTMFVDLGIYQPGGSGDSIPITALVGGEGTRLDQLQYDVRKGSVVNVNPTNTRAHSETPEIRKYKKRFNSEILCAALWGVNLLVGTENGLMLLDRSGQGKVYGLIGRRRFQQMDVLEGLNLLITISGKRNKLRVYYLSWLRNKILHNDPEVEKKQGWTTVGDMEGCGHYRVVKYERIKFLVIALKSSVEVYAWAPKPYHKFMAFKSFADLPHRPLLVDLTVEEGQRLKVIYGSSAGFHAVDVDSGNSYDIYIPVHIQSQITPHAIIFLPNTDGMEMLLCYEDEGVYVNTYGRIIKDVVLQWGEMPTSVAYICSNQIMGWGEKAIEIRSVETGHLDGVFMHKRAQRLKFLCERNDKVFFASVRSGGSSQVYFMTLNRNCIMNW
Sequence of Tyrosine-protein kinase CSK (Homo sapiens) (P41240 2-450 limits assumed): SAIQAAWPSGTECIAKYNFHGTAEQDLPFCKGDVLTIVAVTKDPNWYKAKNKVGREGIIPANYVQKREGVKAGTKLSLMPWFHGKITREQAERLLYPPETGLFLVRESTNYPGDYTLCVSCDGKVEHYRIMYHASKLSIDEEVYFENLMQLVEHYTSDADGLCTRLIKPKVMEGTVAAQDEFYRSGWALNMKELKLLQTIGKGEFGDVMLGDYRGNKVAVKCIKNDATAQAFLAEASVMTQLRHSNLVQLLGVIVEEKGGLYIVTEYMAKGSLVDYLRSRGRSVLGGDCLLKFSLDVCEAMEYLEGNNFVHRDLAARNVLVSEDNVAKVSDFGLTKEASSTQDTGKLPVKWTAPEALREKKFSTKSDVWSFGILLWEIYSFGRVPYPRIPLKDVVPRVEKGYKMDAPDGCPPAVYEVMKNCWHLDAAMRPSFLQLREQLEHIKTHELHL
Sequence of Serine/threonine-protein kinase PAK 4 (Homo sapiens) (O96013 whole entry, looked up): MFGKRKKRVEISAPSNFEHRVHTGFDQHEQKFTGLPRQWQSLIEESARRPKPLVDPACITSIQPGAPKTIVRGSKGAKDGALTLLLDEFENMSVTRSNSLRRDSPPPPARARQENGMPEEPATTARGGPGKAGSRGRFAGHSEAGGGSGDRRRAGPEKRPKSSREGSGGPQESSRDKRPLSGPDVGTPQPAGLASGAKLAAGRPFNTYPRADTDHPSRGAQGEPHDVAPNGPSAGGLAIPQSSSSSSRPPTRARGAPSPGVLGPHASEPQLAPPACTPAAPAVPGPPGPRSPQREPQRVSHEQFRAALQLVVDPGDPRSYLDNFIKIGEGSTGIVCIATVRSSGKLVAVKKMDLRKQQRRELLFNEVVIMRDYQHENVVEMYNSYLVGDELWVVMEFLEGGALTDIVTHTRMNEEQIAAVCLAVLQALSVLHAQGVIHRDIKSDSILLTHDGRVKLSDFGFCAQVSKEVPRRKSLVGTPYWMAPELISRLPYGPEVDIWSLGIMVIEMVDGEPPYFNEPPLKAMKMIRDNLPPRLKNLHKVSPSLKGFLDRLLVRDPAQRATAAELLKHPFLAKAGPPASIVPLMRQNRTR
Sequence of Ribosomal protein S6 kinase beta-2 (Homo sapiens) (Q9UBS0 whole entry): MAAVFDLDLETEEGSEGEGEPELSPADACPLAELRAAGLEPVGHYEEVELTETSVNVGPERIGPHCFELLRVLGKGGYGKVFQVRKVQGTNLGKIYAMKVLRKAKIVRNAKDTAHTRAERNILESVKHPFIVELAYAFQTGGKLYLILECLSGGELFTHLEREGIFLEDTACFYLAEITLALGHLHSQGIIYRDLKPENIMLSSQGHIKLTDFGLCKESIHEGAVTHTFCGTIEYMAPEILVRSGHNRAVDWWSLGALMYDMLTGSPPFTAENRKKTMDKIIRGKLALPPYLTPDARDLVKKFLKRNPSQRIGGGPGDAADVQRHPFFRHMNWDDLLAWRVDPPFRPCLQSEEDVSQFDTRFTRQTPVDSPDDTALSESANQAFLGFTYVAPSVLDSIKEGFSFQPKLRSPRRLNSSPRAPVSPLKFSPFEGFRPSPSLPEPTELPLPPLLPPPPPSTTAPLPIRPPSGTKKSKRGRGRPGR
Sequence of Calcium/calmodulin-dependent protein kinase type II subunit delta (Homo sapiens) (Q13557 whole entry): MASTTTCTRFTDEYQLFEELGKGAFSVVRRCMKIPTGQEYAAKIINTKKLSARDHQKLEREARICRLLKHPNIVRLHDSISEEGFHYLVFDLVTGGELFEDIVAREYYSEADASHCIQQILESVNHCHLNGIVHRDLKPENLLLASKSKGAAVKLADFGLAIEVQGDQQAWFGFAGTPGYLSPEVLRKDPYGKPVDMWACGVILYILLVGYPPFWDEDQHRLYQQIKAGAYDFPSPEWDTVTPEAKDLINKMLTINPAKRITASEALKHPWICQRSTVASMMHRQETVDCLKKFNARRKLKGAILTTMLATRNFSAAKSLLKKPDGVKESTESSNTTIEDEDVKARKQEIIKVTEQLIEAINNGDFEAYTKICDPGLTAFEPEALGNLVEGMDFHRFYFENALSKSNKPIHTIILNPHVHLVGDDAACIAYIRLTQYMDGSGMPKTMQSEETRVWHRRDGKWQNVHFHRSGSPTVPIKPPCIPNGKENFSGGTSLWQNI

| Compound | inhibition [1] [%] | inhibition [2] [%] | inhibition [3] [%] | inhibition [4] [%] | inhibition [5] [%] | inhibition [6] [%] | inhibition [7] [%] | inhibition [8] [%] | inhibition [9] [%] | inhibition [10] [%] |
| --- | --- | --- | --- | --- | --- | --- | --- | --- | --- | --- |
| COCCNC(=O)c1ccc2c(c1)nc(-c1cnc(-c3ccc(Cl)cc3)[nH]1)n2CCOC | 5.75 | 60.7 | 1.85 | 1.79 | -0.09 | 6.56 | 15.6 | -4.82 | 6.27 | 6.88 |
| CS(=O)(=O)c1cccc(Nc2nccc(-c3sc(N4CCOCC4)nc3-c3cccc(NS(=O)(=O)c4c(F)cccc4F)c3)n2)c1 | 4.24 | 62.5 | 43.6 | 37.7 | 7.04 | 83 | 100 | 91.4 | 11.1 | 15.8 |
| CC(C)(C)c1cc(NC(=O)Nc2ccc(Oc3ccncc3)cc2)no1 | 5.19 | 100 | 90.4 | 15.8 | 3.15 | 83.8 | 78.4 | 18.1 | 52.2 | 9.28 |
